In BindingDB's records for doi:10.1016/j.bioorg.2016.11.007 (University of Karachi, 2017):

What was measured:
[1] = target: T1, Thymidine phosphorylase (Escherichia coli (strain K12), UniProt P07650); experiment: Thymidine Phosphorylase Inhibition Assay; settings: 30 °C
Method: TP inhibition assay was performed spectrophotometrically in 96-well plate. […] The total reaction volume was 200 μL. 20 μL of TP enzyme (0.058 unit/well) was incubated with 10 μL of test compounds (0.5 mM) for 10 min at 30 C. […] Every experiment was run in triplicate.

[2] = target: T1, Thymidine phosphorylase; experiment: Kinetic Assay; settings: 30 °C

T1 sequence (P07650 whole entry): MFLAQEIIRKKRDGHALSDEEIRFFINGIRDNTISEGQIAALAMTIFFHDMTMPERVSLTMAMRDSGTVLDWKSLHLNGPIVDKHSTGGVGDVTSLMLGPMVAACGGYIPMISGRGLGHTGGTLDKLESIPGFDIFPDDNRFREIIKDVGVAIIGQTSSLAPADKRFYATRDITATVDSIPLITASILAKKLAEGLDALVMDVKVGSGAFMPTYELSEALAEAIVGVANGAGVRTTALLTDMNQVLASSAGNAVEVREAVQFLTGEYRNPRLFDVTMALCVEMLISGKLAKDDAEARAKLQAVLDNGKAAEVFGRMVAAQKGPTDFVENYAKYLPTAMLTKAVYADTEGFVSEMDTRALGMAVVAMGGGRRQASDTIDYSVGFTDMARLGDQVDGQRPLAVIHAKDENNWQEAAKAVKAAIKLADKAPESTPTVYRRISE

| SMILES | IC50 [1] | Ki [2] |
| --- | --- | --- |
| Cc1ccc(C(=O)OC[C@H]2O[C@@H](n3cc(C)c(=O)[nH]c3=O)C[C@@H]2O)cc1 [5'-O-(4''-Methylbenzoyl)-thymidine (4)] | 18.5 µM | 12.5 µM |
| Cc1cn([C@H]2C[C@H](O)[C@@H](COC(=O)c3cccc(Br)c3)O2)c(=O)[nH]c1=O [5'-O-(3''-Bromobenzoyl)-thymidine (15)] | 33.3 µM | 11.4 µM |
| COc1ccc(C(=O)OC[C@H]2O[C@@H](n3cc(C)c(=O)[nH]c3=O)C[C@@H]2O)cc1 [5'-O-(4''-Methoxybenzoyl)-thymidine (10)] | 18.8 µM | 12.8 µM |
| COc1ccccc1C(=O)OC[C@H]1O[C@@H](n2cc(C)c(=O)[nH]c2=O)C[C@@H]1O [5'-O-(2''-Methoxybenzoyl)-thymidine (11)] | 90 µM |  |
| Cc1cn([C@H]2C[C@H](OC(=O)c3ccc(Br)cc3)[C@@H](COC(=O)c3ccc(Br)cc3)O2)c(=O)[nH]c1=O [5'-O-(4''-Bromobenzoyl)-thymidine-3'-O-4''-bromobenzoate (14)] | 7.5 µM | 7.81 µM |
| Cc1cn([C@H]2C[C@H](OC(=O)c3ccc(Cl)cc3Cl)[C@@H](COC(=O)c3ccc(Cl)cc3Cl)O2)c(=O)[nH]c1=O [5'-O-(2'',4''-Dichlorobenzoyl)-thymidine-3'-O-2'',4''-dichlorobenzoate (13)] | 146 µM |  |
